Experimental data: patent publication US9492424B2, “Muscle atrophy inhibitor” (MORINAGA MILK INDUSTRY CO., LTD., priority 2011, dated 2016)

Tests used:
atrogin-1 gene = assay: expression amount of atrogin-1 gene in tibialis anterior muscle by real time PCR; type: in vivo, rat; details: Example 3
Description: (§1) The tibialis anterior muscles collected in Example 1 mentioned above were used to evaluate expression amounts of genes that participate in muscle atrophy.
(§2) The tibialis anterior muscle was frozen in liquid nitrogen immediately after the collection, and homogenized in Trizol Reagent (Invitrogen), and the total RNA was extracted by using RNeasy Mini Kit (QIAGEN). cDNA was obtained by the total RNA by using High Capacity cDNA Reverse Kit (ABI). The cDNA, primers for amplifying each of the atrogin-1, MuRF1, and myostatin genes (ABI), and Taqman Fast Universal PCR Master Mix (ABI) were mixed, and expression amount of each gene in the test sample was relatively quantified by the real time PCR method, with taking the gene expression amount in the DEX group as 1. In statistical analysis, it was determined whether there were statistically significant differences between the values obtained for the DEX group and the values obtained for the other groups according to the Dunnett test.
(§3) In Examples 1 and 2, 1 mass % of the extract of Citrus depressa was added to the feed, and fed. […]

MuRF1 gene = assay: expression amount of MuRF1 gene in tibialis anterior muscle by real time PCR; type: in vivo, rat; details: Example 3
Description: as §1, §2, §3

Compound	expression amount of the atrogin-1 gene relative to DEX group taken as 1.0 (atrogin-1 gene; eight-month old SD rats, 0.0007 mass % in feed for two weeks, dexamethasone)	ingestion amount with which the effect can be expected (atrogin-1 gene; from feed intake and body weight of the NOB group, 19 days ingestion)	expression amount of the MuRF1 gene relative to DEX group taken as 1.0 (MuRF1 gene; eight-month old SD rats, 0.0004 mass % in feed for two weeks, dexamethasone)	ingestion amount with which the effect can be expected (MuRF1 gene; from feed intake and body weight of the TAN group, 19 days ingestion)
COc1ccc(-c2cc(=O)c3c(OC)c(OC)c(OC)c(OC)c3o2)cc1OC [NOB, nobiletin]	0.85±0.29	about 0.2 mg/kg/day	–	–
COc1ccc(-c2cc(=O)c3c(OC)c(OC)c(OC)c(OC)c3o2)cc1 [TAN, tangeretin]	–	–	0.77±0.35	about 0.1 mg/kg/day
